Measurements published in article PMC4331650 (Biochimica et Biophysica Acta, 2014).
Substitutions are numbered along the chain they refer to. Entries after “also recorded” stand apart in the source; their conditions may differ. Where two headings read alike, the source gives them in different places.

Assays:
F256A CLC-K1/barttin = target: T1, F256A CLC-K1/barttin (Rattus norvegicus, UniProt Q06393, F256A); experiment: NFA effect on F256A CLC-K1/barttin, voltage clamp in Xenopus oocytes; type: cell-based
T1 sequence (Q06393 1-687 F256A): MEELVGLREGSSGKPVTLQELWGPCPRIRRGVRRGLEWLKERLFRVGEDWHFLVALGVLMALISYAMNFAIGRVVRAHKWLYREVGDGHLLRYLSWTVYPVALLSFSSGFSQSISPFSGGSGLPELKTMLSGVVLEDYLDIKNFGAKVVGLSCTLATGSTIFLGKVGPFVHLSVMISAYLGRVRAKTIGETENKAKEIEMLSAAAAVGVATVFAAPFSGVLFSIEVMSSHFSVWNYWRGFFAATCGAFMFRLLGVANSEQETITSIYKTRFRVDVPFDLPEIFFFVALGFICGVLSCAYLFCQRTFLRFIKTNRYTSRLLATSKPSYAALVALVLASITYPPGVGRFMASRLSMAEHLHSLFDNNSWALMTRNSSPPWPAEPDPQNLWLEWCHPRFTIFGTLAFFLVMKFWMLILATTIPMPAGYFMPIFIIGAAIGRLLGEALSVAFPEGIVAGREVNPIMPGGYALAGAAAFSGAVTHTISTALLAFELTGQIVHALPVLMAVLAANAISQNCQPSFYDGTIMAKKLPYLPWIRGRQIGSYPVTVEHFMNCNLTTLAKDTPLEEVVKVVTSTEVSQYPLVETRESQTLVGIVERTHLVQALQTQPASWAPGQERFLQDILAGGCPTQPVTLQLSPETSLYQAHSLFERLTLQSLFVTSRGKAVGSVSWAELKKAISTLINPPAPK
T1 sequence (Q8WZ55 1-320 Y98A partner): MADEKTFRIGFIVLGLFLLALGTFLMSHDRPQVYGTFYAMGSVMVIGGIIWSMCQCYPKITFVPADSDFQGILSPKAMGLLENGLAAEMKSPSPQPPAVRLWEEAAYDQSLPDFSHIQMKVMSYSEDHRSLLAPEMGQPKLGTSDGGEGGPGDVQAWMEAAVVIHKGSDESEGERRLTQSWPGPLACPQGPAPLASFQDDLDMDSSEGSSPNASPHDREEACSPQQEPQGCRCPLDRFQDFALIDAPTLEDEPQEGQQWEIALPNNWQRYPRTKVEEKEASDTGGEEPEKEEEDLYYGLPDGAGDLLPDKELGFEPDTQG

human CLC-Ks = details: HEK293 cells; all concentrations tested, from 0.3 to 2000 μM; cited from earlier work
N257A CLC-K1/barttin = target: T2, N257A CLC-K1/barttin (Rattus norvegicus, UniProt Q06393, N257A); experiment: NFA effect on N257A CLC-K1 with barttin, voltage clamp in Xenopus oocytes; type: cell-based; details: 200 μM NFA
T2 sequence (Q06393 1-687 N257A): T1 sequence (Q06393 1-687 F256A) with A256F, N257A
T2 sequence (Q8WZ55 1-320 Y98A partner): T1 sequence (Q8WZ55 1-320 Y98A partner)

N257A CLC-K1 = target: T3, N257A CLC-K1 (Rattus norvegicus, UniProt Q06393, N257A); experiment: NFA effect on N257A CLC-K1 without barttin, voltage clamp in Xenopus oocytes; type: cell-based; details: 200 μM NFA
T3 sequence (Q06393 1-687 N257A): T1 sequence (Q06393 1-687 F256A) with A256F, N257A

WT CLC-Ka = target: T4, WT CLC-Ka (Homo sapiens, UniProt P51800); details: Xenopus oocytes, cited from earlier work
T4 sequence (P51800 1-687): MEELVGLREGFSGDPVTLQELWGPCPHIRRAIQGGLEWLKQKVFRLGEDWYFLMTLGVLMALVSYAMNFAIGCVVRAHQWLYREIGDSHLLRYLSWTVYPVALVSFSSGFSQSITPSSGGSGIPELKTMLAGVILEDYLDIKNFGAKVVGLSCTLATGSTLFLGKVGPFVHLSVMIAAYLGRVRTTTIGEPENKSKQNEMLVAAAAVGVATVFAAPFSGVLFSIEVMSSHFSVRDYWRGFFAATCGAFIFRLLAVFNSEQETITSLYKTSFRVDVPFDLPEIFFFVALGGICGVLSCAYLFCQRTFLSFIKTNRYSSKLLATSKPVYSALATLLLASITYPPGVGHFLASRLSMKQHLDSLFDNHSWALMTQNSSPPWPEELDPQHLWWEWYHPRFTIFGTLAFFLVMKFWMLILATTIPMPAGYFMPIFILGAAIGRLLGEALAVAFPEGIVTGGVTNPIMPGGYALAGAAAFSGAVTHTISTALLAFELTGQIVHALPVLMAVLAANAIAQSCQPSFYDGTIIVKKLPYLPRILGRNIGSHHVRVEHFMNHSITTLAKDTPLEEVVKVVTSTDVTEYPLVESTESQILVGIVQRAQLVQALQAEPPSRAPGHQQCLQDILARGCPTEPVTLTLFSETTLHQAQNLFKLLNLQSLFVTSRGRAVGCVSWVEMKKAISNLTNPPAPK
T4 sequence (Q8WZ55 1-320 Y98A partner): T1 sequence (Q8WZ55 1-320 Y98A partner)

rat CLC-K1 = details: HEK293 cells; all concentrations tested, from 0.3 to 2000 μM; cited from earlier work

effect of NFA on currents (F256A CLC-K1/barttin; 10 μM NFA, steady state currents not increased): transient potentiation
maximal potentiation (I1/I0) (F256A CLC-K1/barttin; transient potentiation extrapolated by single-exponential function): around 1.9 fold
sensitivity to NFA compared with WT (N257A CLC-K1/barttin): only weakly more sensitive
sensitivity to NFA compared with WT (N257A CLC-K1): only weakly more sensitive
Structure (SMILES): O=C(O)c1cccnc1Nc1cccc(C(F)(F)F)c1 [NFA, niflumic acid]
effect of NFA on currents (human CLC-Ks): inhibited; also recorded: no longer potentiated
effect on CLC-Ka currents (WT CLC-Ka; [NFA]ext higher than 0.5 mM): block
effect on CLC-Ka currents (WT CLC-Ka; [NFA]ext ≤ 0.5 mM): increases
effect of NFA on currents (rat CLC-K1): inhibited
